Test results from patent US10519152B2, “Compounds and their use in treating cancer” (AstraZeneca AB, priority 2017, dated 2019).

Biological target: T1, Estrogen Receptor (ERα) in MCF-7 human ductal carcinoma breast cell line (Homo sapiens, UniProt P03372)
T1 construct: endogenous in cells; host or cells: MCF-7
T1 sequence (P03372 1-595): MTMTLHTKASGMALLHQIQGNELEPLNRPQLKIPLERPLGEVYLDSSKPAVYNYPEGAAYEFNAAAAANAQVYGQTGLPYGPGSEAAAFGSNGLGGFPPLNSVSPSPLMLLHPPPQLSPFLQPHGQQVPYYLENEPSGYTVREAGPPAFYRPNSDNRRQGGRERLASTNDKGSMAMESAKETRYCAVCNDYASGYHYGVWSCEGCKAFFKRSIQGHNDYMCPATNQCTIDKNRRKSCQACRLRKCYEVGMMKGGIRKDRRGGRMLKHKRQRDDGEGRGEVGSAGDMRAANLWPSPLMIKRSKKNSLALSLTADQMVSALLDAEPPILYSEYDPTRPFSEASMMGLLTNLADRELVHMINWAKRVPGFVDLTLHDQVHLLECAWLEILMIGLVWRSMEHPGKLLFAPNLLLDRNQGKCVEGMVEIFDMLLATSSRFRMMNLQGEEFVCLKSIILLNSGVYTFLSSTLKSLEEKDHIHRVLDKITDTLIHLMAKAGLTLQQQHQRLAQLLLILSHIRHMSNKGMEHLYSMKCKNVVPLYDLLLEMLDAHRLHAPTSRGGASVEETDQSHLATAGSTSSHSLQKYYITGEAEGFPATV
Experiment: MCF-7 ER degradation assay (cell based immuno-fluorescence)
Details: MCF-7 cells; for ER degradation ≥ 90% at 0.3 μM: ER degradation by fulvestrant at 0.3 μM is defined as 100%; for DC50: 18-22 hours incubation, 50% reduction of ERα expression, single experiment or average of two or more, read-out: MCF-7 ER degradation IC50
In short: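 MCF-7 human ductal carcinoma breast cells were seeded at 3.75×10^4 cells per mL (40 μL per well) in 384 well plates with phenol red free DMEM containing 2 mM L-Glutamine and 5% (v/v) Charcoal/Dextran treated foetal calf serum. After overnight culture, compounds were acoustically dispensed, incubated 18-22 hours, then cells were formaldehyde-fixed and immunostained for ERα.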

Row | Compound | ER degradation ≥ 90% at 0.3 μM | DC50
1 | Cc1ncsc1-c1ccc(CNC(=O)[C@@H]2C[C@@H](O)CN2C(=O)[C@@H](NC(=O)COCCCCCCCOc2cc(F)c([C@@H]3c4[nH]c5ccccc5c4C[C@@H](C)N3CC(C)(C)F)c(F)c2)C(C)(C)C)cc1 [Example 7, (2S,4R)-1-((S)-2-(2-((7-(3,5-Difluoro-4-((1R,3R)-2-(2-fluoro-2-methylpropyl)-3-methyl-2,3,4,9-tetrahydro-1H-pyrido[3,4-b]indol-1-yl)phenoxy)heptyl)oxy)acetamido)-3,3-dimethylbutanoyl)-4-hydroxy-N-(4-(4-methylthiazol-5-yl)benzyl)pyrrolidine-2-carboxamide] | •• | 1.6 nM
2 | Cc1ncsc1-c1ccc(CNC(=O)[C@@H]2C[C@@H](O)CN2C(=O)[C@@H](NC(=O)COCCC(F)(F)CCOc2cc(F)c([C@@H]3c4[nH]c5ccccc5c4C[C@@H](C)N3CC(C)(C)F)c(F)c2)C(C)(C)C)cc1 [Example 130, (2S,4R)-1-((S)-2-(2-((5-(3,5-Difluoro-4-((1R,3R)-2-(2-fluoro-2-methylpropyl)-3-methyl-2,3,4,9-tetrahydro-1H-pyrido[3,4-b]indol-1-yl)phenoxy)-3,3-difluoropentyl)oxy)acetamido)-3,3-dimethylbutanoyl)-4-hydroxy-N-(4-(4-methylthiazol-5-yl)benzyl)pyrrolidine-2-carboxamide] | • | 0.5 nM
3 | Cc1ncsc1-c1ccc(CNC(=O)[C@@H]2C[C@@H](O)CN2C(=O)[C@@H](NC(=O)CCCCOCCCCCOc2cc(F)c([C@@H]3c4[nH]c5ccccc5c4C[C@@H](C)N3CC(C)(C)F)c(F)c2)C(C)(C)C)cc1 [Example 113, (2S,4R)-1-((S)-2-(5-((5-(3,5-Difluoro-4-((1R,3R)-2-(2-fluoro-2-methylpropyl)-3-methyl-2,3,4,9-tetrahydro-1H-pyrido[3,4-b]indol-1-yl)phenoxy)pentyl)oxy)pentanamido)-3,3-dimethylbutanoyl)-4-hydroxy-N-(4-(4-methylthiazol-5-yl)benzyl)pyrrolidine-2-carboxamide] | •• | 0.9 nM
4 | Cc1ncsc1-c1ccc(CNC(=O)[C@@H]2C[C@@H](O)CN2C(=O)[C@@H](NC(=O)COCCCCCCCCOc2ccc([C@@H]3c4[nH]c5ccccc5c4C[C@@H](C)N3CC(F)F)nc2)C(C)(C)C)cc1 [Example 13, (2S,4R)-1-((S)-2-(2-((8-((6-((1S,3R)-2-(2,2-Difluoroethyl)-3-methyl-2,3,4,9-tetrahydro-1H-pyrido[3,4-b]indol-1-yl)pyridin-3-yl)oxy)octyl)oxy)acetamido)-3,3-dimethylbutanoyl)-4-hydroxy-N-(4-(4-methylthiazol-5-yl)benzyl)pyrrolidine-2-carboxamide] | • | 3.7 nM
5 | Cc1ncsc1-c1ccc(CNC(=O)[C@@H]2C[C@@H](O)CN2C(=O)[C@@H](NC(=O)COCc2cccc(COc3cc(F)c([C@@H]4c5[nH]c6ccccc6c5C[C@@H](C)N4CC(C)(C)F)c(F)c3)n2)C(C)(C)C)cc1 [Example 132, (2S,4R)-1-((S)-2-(2-((6-((3,5-Difluoro-4-((1R,3R)-2-(2-fluoro-2-methylpropyl)-3-methyl-2,3,4,9-tetrahydro-1H-pyrido[3,4-b]indol-1-yl)phenoxy)methyl)pyridin-2-yl)methoxy)acetamido)-3,3-dimethylbutanoyl)-4-hydroxy-N-(4-(4-methylthiazol-5-yl)benzyl)pyrrolidine-2-carboxamide] | • | 0.6 nM
6 | Cc1ncsc1-c1ccc(CNC(=O)[C@@H]2C[C@@H](O)CN2C(=O)[C@@H](NC(=O)COCCc2ccc(COc3cc(F)c([C@@H]4c5[nH]c6ccccc6c5C[C@@H](C)N4CC(C)(C)F)c(F)c3)cc2)C(C)(C)C)cc1 [Example 53, (2S,4R)-1-((S)-2-(2-(4-((3,5-difluoro-4-((1R,3R)-2-(2-fluoro-2-methylpropyl)-3-methyl-2,3,4,9-tetrahydro-1H-pyrido[3,4-b]indol-1-yl)phenoxy)methyl)phenethoxy)acetamido)-3,3-dimethylbutanoyl)-4-hydroxy-N-(4-(4-methylthiazol-5-yl)benzyl)pyrrolidine-2-carboxamide] | • | 3.5 nM
7 | Cc1ncsc1-c1ccc(CNC(=O)[C@@H]2C[C@@H](O)CN2C(=O)[C@@H](NC(=O)CCCCCOCCCCOc2cc(F)c([C@@H]3c4[nH]c5ccccc5c4C[C@@H](C)N3CC(C)(C)F)c(F)c2)C(C)(C)C)cc1 [Example 109, (2S,4R)-1-((S)-2-(6-(4-(3,5-difluoro-4-((1R,3R)-2-(2-fluoro-2-methylpropyl)-3-methyl-2,3,49-tetrahydro-1H-pyrido[3,4-b]indol-1-yl)phenoxy)butoxy)hexanamido)-3,3-dimethylbutanoyl)-4-hydroxy-N-(4-(4-methylthiazol-5-yl)benzyl)pyrrolidine-2-carboxamide] | •• | 1 nM
8 | Cc1ncsc1-c1ccc(CNC(=O)[C@@H]2C[C@@H](O)CN2C(=O)[C@@H](NC(=O)COCCOCCCCOc2cc(F)c([C@@H]3c4[nH]c5ccccc5c4C[C@@H](C)N3CC(C)(C)F)c(F)c2)C(C)(C)C)cc1 [Example 128, (2S,4R)-1-((S)-2-(2-(2-(4-(3,5-Difluoro-4-((1R,3R)-2-(2-fluoro-2-methylpropyl)-3-methyl-2,3,4,9-tetrahydro-1H-pyrido[3,4-b]indol-1-yl)phenoxy)butoxy)ethoxy)acetamido)-3,3-dimethylbutanoyl)-4-hydroxy-N-(4-(4-methylthiazol-5-yl)benzyl)pyrrolidine-2-carboxamide] | •• | 0.6 nM
9 | Cc1ncsc1-c1ccc(CNC(=O)[C@@H]2C[C@@H](O)CN2C(=O)[C@@H](NC(=O)CCCOCCCCCCOc2cc(F)c([C@@H]3c4[nH]c5ccccc5c4C[C@@H](C)N3CC(C)(C)F)c(F)c2)C(C)(C)C)cc1 [Example 112, (2S,4R)-1-((S)-2-(4-((6-(3,5-difluoro-4-((1R,3R)-2-(2-fluoro-2-methylpropyl)-3-methyl-2,3,4,9-tetrahydro-1H-pyrido[3,4-b]indol-1-yl)phenoxy)hexyl)oxy)butanamido)-3,3-dimethylbutanoyl)-4-hydroxy-N-(4-(4-methylthiazol-5-yl)benzyl)pyrrolidine-2-carboxamide] | •• | 2.2 nM
10 | Cc1ncsc1-c1ccc(CNC(=O)[C@@H]2C[C@@H](O)CN2C(=O)[C@@H](NC(=O)CCCCCCCOCCOc2cc(F)c([C@@H]3c4[nH]c5ccccc5c4C[C@@H](C)N3CC(C)(C)F)c(F)c2)C(C)(C)C)cc1 [Example 111, (2S,4R)-1-((S)-2-(8-(2-(3,5-Difluoro-4-((1R,3R)-2-(2-fluoro-2-methylpropyl)-3-methyl-2,3,4,9-tetrahydro-1H-pyrido[3,4-b]indol-1-yl)phenoxy)ethoxy)octanamido)-3,3-dimethylbutanoyl)-4-hydroxy-N-(4-(4-methylthiazol-5-yl)benzyl)pyrrolidine-2-carboxamide] | • | 0.8 nM
11 | Cc1ncsc1-c1ccc(CNC(=O)[C@@H]2C[C@@H](O)CN2C(=O)[C@@H](NC(=O)COCCCCC(=O)N(C)CCOc2cc(F)c([C@@H]3c4[nH]c5ccccc5c4C[C@@H](C)N3CC(C)(C)F)c(F)c2)C(C)(C)C)cc1 [Example 143, (2S,4R)-1-((S)-2-(2-((5-((2-(3,5-Difluoro-4-((1R,3R)-2-(2-fluoro-2-methylpropyl)-3-methyl-2,3,4,9-tetrahydro-1H-pyrido[3,4-b]indol-1-yl)phenoxy)ethyl)(methyl)amino)-5-oxopentyl)oxy)acetamido)-3,3-dimethylbutanoyl)-4-hydroxy-N-(4-(4-methylthiazol-5-yl)benzyl)pyrrolidine-2-carboxamide] | •• | 0.2 nM
12 | Cc1ncsc1-c1ccc(CNC(=O)[C@@H]2C[C@@H](O)CN2C(=O)[C@@H](NC(=O)COCCOCCOCCOCCOCCOCC(=O)Nc2ccc([C@@H]3c4[nH]c5ccccc5c4C[C@@H](C)N3CC(C)(C)F)cc2)C(C)(C)C)cc1 [Example 54, N^1-(4-((1R,3R)-2-(2-fluoro-2-methylpropyl)-3-methyl-2,3,4,9-tetrahydro-1H-pyrido[3,4-b]indol-1-yl)phenyl)-N^18—((S)-1-((2S,4R)-4-hydroxy-2-(4-(4-methylthiazol-5-yl)benzylcarbamoyl)pyrrolidin-1-yl)-3,3-dimethyl-1-oxobutan-2-yl)-2,5,8,11,14,17-hexaoxaoctadecane-1,18-dicarboxamide, Trifluoroacetic Acid] | •• | 1.7 nM
